The subject of one test is C. elegans VC2010. Nature of the test: Manual phenotyping pilot screen of 3,584 known compounds (CCBN library). Conditions: dissecting microscope, positively confirmed drugs of CCBN library. It counts as in vivo, Caenorhabditis elegans.
The test system of test [1] is S. cerevisiae yeast strain BY4743. Nature of the test: Yeast growth rate (OD600) dose titration. The format is cell-based. The following applies: BY4743, YPD, growth rate reduced by 50%. As for the experimental part: The S. cerevisiae yeast strain BY4743 (MATa/α his3Δ1/his3Δ1 leu2Δ0/leu2Δ0 LYS2/lys2Δ0 met15Δ0/MET15 ura3Δ0/ura3Δ0) was used for all yeast experiments and was grown using yeast extract peptone dextrose (YPD) media at pH 7 [52]. BY4743 was grown overnight to initial log phase and was then grown with the compound identified in the C. elegans assay. The growth rate was quantified by continuously monitoring the optical density of the liquid yeast growth at OD600. The compound was screened in a dose-titration in YPD as described. The IC50 was the concentration required to reduce the growth rate or Average G value by 50% compared to a vehicle control (2% DMSO).

Test [2] deals with Human embryonic kidney (HEK293) cells. Nature of the test: HEK293 viability, MTT colorimetric assay. It counts as cell-based. Conditions: read-out: Mammalian IC50. As for the experimental part: Potential anthelmintic compounds identified from primary screening were further tested against mammalian cells and yeast to determine whether they had deleterious effects in those organisms. Human embryonic kidney (HEK293) cells were grown in Dulbecco’s Modified Eagle’s Medium (DMEM; Sigma) containing 5% fetal bovine serum (FBS; Sigma) in 96-well plates tissue culture plates. Compounds were added 24h post-plating at 10, 30, 100, or 300 μM final concentrations. Dimethyl sulfoxide (DMSO) was used as a negative control at 0.1%. Cells were treated for 24 or 48 hours, after which time viability was assessed using a 3-(4,5-dimethylthiazol-2-yl)-2,5-diphenyltetrazolium bromide (MTT) colorimetric assay. Percent viability was determined by comparing treatment values to DMSO control values.

For test [3], the system named is C. elegans VC2010 (wild type). Nature of the test: WormScan screen of C. elegans growth, fecundity, motility and mortality. The format is in vivo, Caenorhabditis elegans. Conditions: read-out: Nematode IC50. As for the experimental part: All compound libraries were stored in 96-well plates, with 80 drugs per plate (columns 1 and 12 left empty). A BioGrid BG600 pinning robot (Digilab / BioRobotics) was used for compound transfer. The robot uses a 96-pin tool (0.7 mm dia.) to transfer a nominal volume of 340 nL of compound. For retesting, compounds were hand pinned from the original library plates to assay plates using a single 0.7 mm dia. pin. The assay plates were 96-well clear flat-bottom microplates containing 2% χ1666 E.coli bacteria in 0.5X Liquid Nematode Growth Media (LNGM) plus cholesterol (Bacteria were mass-grown in rich media, and harvested by centrifugation to produce a thick paste of bacterial cells that was kept frozen at -20°C. Cells were resuspended at 2% W/V in 0.5X LNGM to produce liquid worm food). Using a COPAS Biosort (Union Biometrica), two L4 to young adult stage VC2010 worms were added to each well of the plate in a final volume of 45 μL. After five days of exposure to the compounds, the plates were scanned and the data analyzed. A five day time period was chosen to be able to observe effects over all stages of the life cycle and through at least one round of replication. The initial proof-of-principle primary screen was performed manually using a dissecting microscope. Phenotypes scored included decreased motility, reduced brood size, and/or death as described previously. For high throughput screening of the Chembridge and Maybridge compound libraries we used the program WormScan, which was adapted for screening 96-well flat-bottom LNGM plates. Using WormScan it was possible to screen four 96-well plates at a time. Plates were scanned twice, at a resolution of 1200 dots per inch, 16-bit grayscale, producing a jpeg image. The light intensity produced by the scanner was sufficient to cause negative phototaxis equivalent to a physical stimulus for mortality determination. The time required to scan four 96-well plates using an Epson Perfection V700 Photo Scanner was less than ten minutes. The time to screen a single plate was less than 1.2 minutes, with less than ten seconds between scans.
WormScan was used to screen for the same phenotypes as in the manual screen (reduced brood size, reduced behavior/motility response and increased mortality). Two sequential scans for each 96-well plate were aligned to a reference region of interest (ROI). Image analysis was based on a difference image score calculated for each ROI. The difference image score (WormScan score) was normalized using a “percent of control” method to derive a normalized WormScan score. […] Wild-type growth in 1% DMSO (Fig 1A) results in a normalized WormScan score of 100. Exposure to 50 nM ivermectin gives a score of 0 (Fig 1C), and complete absence of worms gives a score of 0 (Fig 1D). For the primary screen the WormScan score was calculated using custom macro scripts written for Fiji. For secondary screening and any subsequent studies the WormScan score was calculated using a standalone Java program (See supplemental). Probit regression of mortality was calculated using Mathematica 8.0.

Here are results for 35 compounds from article PMC5068747, “Using C. elegans Forward and Reverse Genetics to Identify New Compounds with Anthelmintic Activity” (PLoS Neglected Tropical Diseases, 2016).

Entries after “also recorded” stand apart in the source; their conditions may differ. Read-outs that look alike come from different tables or passages of the source.

As to `CC(=O)O[C@@]12C[C@@H](C)[C@@]3(O)[C@@H](C=C(CO)C[C@]4(O)C(=O)C(C)=C[C@@H]34)[C@@H]1C2(C)C` [12-Deoxyphorbol 13-acetate], in the test on C. elegans VC2010, the “Worm Reaction in Drug” value is “SLOW only L1/2s (& orig adults), lots unhatched eggs”.

In the case of `CC(=O)OCC1=C[C@H]2[C@@H]3C(C)(C)[C@]3(OC(=O)Cc3ccccc3)C[C@@H](C)[C@]2(O)[C@@H]2C=C(C)C(=O)[C@@]2(O)C1` [12-Deoxyphorbol 13-phenylacetate 20-acetate], in the test on C. elegans VC2010, the “Worm Reaction in Drug” value was “Adults DEAD, only L1s/2s, not starved”.

`Cl.c1ccc([C@H]2CN3CCSC3=N2)cc1` [(-)-Tetramisole hydrochloride]: the “Worm Reaction in Drug” value with C. elegans VC2010 was “UNC! Paralyzed, lots of worms, 1 starved, 1 not”.

Consider `CNC(=O)O/N=C/C(C)(C)SC` [Aldicarb], for which the “Worm Reaction in Drug” value with C. elegans VC2010 was “UNC adults, but definitely STARVED”.

On to `COc1cccc2c1cc([N+](=O)[O-])c1c(C(=O)O)cc3c(c12)OCO3` [Aristolochic acid A], for which, in the test with C. elegans VC2010, the “Worm Reaction in Drug” value was “SLOW, 1:only L2s, not starved, 2:1 sterile adult?”.

On to `CCCCNC(=O)n1c(NC(=O)OC)nc2ccccc21` [Benomyl, reference compound], for which the half-maximal inhibitory concentration (IC50) – broadly, the midpoint of a concentration-inhibition curve – in test [1] (Saccharomyces cerevisiae) is 750 µM; in test [2] (Homo sapiens) it was 8 µM; in test [3] (Caenorhabditis elegans, 120 h), 60 µM.

For `NNC(=O)CCn1c2ccc(Cl)cc2c2cc(Cl)ccc21` [CID 766260], the IC50 came out at 113 µM in test [1]; 44 µM in test [2]; 282 µM in test [3] (C. elegans, 5 days exposure).

Take `O=C1c2ccc(-c3nc4cc(Cl)ccc4c(=O)o3)cc2C(=O)N1c1ccccc1-c1ccccc1` [CID 2222671]: the IC50 was above 1000 µM in test [1]; 234 µM in test [2]; above 500 µM in test [3] (C. elegans, 5 days exposure).

Take `N#CSCCCOc1ccccc1Br` [CID 2238042]: the IC50 in test [1] turned out to be 338 µM; in test [2] it was 67 µM; in test [3] (C. elegans, 5 days exposure) it was 357 µM.

As to `Fc1ccc(COc2ccc(-c3nnco3)cc2)cc1` [CID 2740991], the IC50 is above 1000 µM in test [1]; 83 µM in test [2]; 19 µM in test [3] (C. elegans, 5 days exposure).

On to `CC[C@@]1(O)C(=O)OCc2c1cc1n(c2=O)Cc2cc3ccccc3nc2-1` [Camptothecin], for which the “Worm Reaction in Drug” value in the test on C. elegans VC2010 was “SLOW - progeny paralyzed, only adults moving, not starved; also recorded: SLOW 1 well only 3 worms (dead ones, unhatched eggs present), other starved, lots of babies, 2nd gen”.

As for `CC[C@@]1(O)C(=O)OCc2c1cc1n(c2=O)Cc2cc3ccccc3nc2-1` [Camptothecine (S, +)], the “Worm Reaction in Drug” value in the test on C. elegans VC2010 is “unc-ish, few progeny, sickly gonads not developed properly ie. Adults but not eggs, etc”.

Regarding `CCOP(=S)(OCC)Oc1nc(Cl)c(Cl)cc1Cl` [Chlorpyrifos], the “Worm Reaction in Drug” value in the test with C. elegans VC2010 is on record as “both DEAD!”.

Consider `Cl.Clc1ccc(Cn2c(CN3CCCC3)nc3ccccc32)cc1` [Clemizole Hydrochloride], for which the “Worm Reaction in Drug” value with C. elegans VC2010 is on record as “mostly young ones, a few adults but look sterile, a little unc”.

Regarding `COc1cc2c(cc1OC)[C@@H]1C(=O)c3ccc4c(c3O[C@@H]1CO2)C=CC(C)(C)O4` [Deguelin], in the test on C. elegans VC2010, the “Worm Reaction in Drug” value is “SLOW, VERY few progeny, not starved, not very mobile”.

On to `COc1cc2c(cc1OC)[C@@H]1C(=O)c3ccc4c(c3O[C@@H]1CO2)CC(C(C)C)O4` (stereo partly drawn) [Dihydrorotenone], for which, in the test with C. elegans VC2010, the “Worm Reaction in Drug” value is reported as “SLOW uncish only 1 gen ns”.

Regarding `COC(=O)Nc1nc2ccc(Sc3ccccc3)cc2[nH]1` [Fenbendazole], the “Worm Reaction in Drug” value in the test with C. elegans VC2010 is “UNC (lots of worms)”.

As for `CN(C)c1ccc(C(=C2C=CC(=[N+](C)C)C=C2)c2ccc(N(C)C)cc2)cc1` [Gentian Violet], the “Worm Reaction in Drug” value with C. elegans VC2010 is “SLOW! Ns, uncish, only 1 gen past”.

Turning to `CCCCCC(=O)O[C@]1(C(C)=O)CC[C@H]2[C@@H]3CCC4=CC(=O)CC[C@]4(C)[C@H]3CC[C@@]21C` [Hydroxyprogesterone Caproate], the “Worm Reaction in Drug” value in the test on C. elegans VC2010 was “slower, one starved one not”.

On to `COC(=O)Nc1nc2ccc(SC(C)C)cc2[nH]1` [Methiazole], for which, in the test with C. elegans VC2010, the “Worm Reaction in Drug” value is listed as “UNC! Lots of worms”.

As to `COP(=S)(OC)Oc1ccc([N+](=O)[O-])cc1` [Methyl Parathione], in the test with C. elegans VC2010, the “Worm Reaction in Drug” value is “SLOW, UNC, ns, 1 gen only”.

`C=C(C)[C@@]12O[C@@]3(c4ccccc4)O[C@@H]1[C@@H]1[C@@H]4O[C@]4(CO)[C@@H](O)[C@]4(O)C(=O)C(C)=C[C@H]4[C@@]1(O3)[C@H](C)[C@H]2OC(=O)/C=C/C=C/c1ccccc1` [Mezerein]: in the test with C. elegans VC2010, the “Worm Reaction in Drug” value is given as “Adults DEAD, only L1s/2s, not starved”.

With `CCCCc1ccc2[nH]c(NC(=O)OC)nc2c1` [Parbendazole], in the test on C. elegans VC2010, the “Worm Reaction in Drug” value was “UNC! Lots of worms in 1, not starved in 2”.

On to `CCCC(=O)O[C@@H]1[C@@H](C)[C@@]2(O)[C@@H](C=C(CO)C[C@]3(O)C(=O)C(C)=C[C@@H]23)[C@@H]2C(C)(C)[C@]12OC(=O)CCC` [Phorbol 12, 13-dibutyrate], for which the “Worm Reaction in Drug” value in the test with C. elegans VC2010 is reported as “SLOW only L1/2s (one gen. only), not starved”.

With `CC(Cc1ccccc1)NCCC(c1ccccc1)c1ccccc1` (stereo not drawn) [Prenylamine Lactate], in the test on C. elegans VC2010, the “Worm Reaction in Drug” value is “few progeny, not starved stalls at late larval?”.

For the compound `C=C1C([C@]2(C)C(CC(=O)OC)[C@@](C)(COC(C)=O)OC(=O)C[C@@H]2OC(C)=O)[C@@H](OC=O)[C@H](OC(=O)C(OC(C)=O)C(C)CC)[C@@]2(C)[C@H](c3ccoc3)CC(=O)C12O` (stereo partly drawn) [Prieuranin Acetate], in the test on C. elegans VC2010, the “Worm Reaction in Drug” value is reported as “SLOW, barely 1 gen, ns; one well = only 1 worm”.

In the case of `C=C1[C@@H]([C@@]2(C)[C@@H](OC(C)=O)CC(=O)O[C@](C)(COC(C)=O)[C@@H]2C(=O)OC)[C@@H](OC=O)[C@H](OC(=O)[C@H](O)[C@H](C)CC)[C@@]2(C)[C@H](c3ccoc3)CC(=O)[C@]12O` [Prieurianin], the “Worm Reaction in Drug” value with C. elegans VC2010 is given as “SLOW! Only orig adults, one well = dead, ns”.

`O=C1c2ccc(O)c(O)c2C(=O)c2c(O)ccc(O)c21` [Quinalizarin]: the “Worm Reaction in Drug” value in the test on C. elegans VC2010 is recorded as “SLOW, unc, ns”.

In the case of `CCN(CC)C(=O)NC1C=C2c3cccc4[nH]cc(c34)C[C@H]2N(C)C1.O=C(O)/C=C\C(=O)O` (stereo partly drawn) [R(+)-Lisuride hydrogen maleate], in the test with C. elegans VC2010, the “Worm Reaction in Drug” value was “UNCish, starved but slow, lots of worms”.

Regarding `C=C(C)[C@H]1Cc2c(ccc3c2O[C@@H]2COc4cc(OC)c(OC)cc4[C@@H]2C3=O)O1` [Rotenone], in the test with C. elegans VC2010, the “Worm Reaction in Drug” value was “SLOW, only one gen., few, not starved”.

In the case of `CC(C)[C@@]1(O)[C@@H](OC(=O)c2ccc[nH]2)[C@@]2(O)[C@@]3(C)C[C@]4(O)O[C@@]5([C@H](O)[C@@H](C)CC[C@]35O)[C@@]2(O)[C@@]14C` [Ryanodine], the “Worm Reaction in Drug” value in the test on C. elegans VC2010 was “UNC! 1: lots and starved, 2: few, not starved, less uncish”.

For the compound `COP(=O)(OC)C(O)C(Cl)(Cl)Cl` (stereo not drawn) [Trichlorfon], in the test with C. elegans VC2010, the “Worm Reaction in Drug” value was “VERY unhappy, unc-ish, a few dpy/hypercontracted animals”.

For the compound `CC(C)(C)c1cc(/C=C(\C#N)C(N)=S)cc(C(C)(C)C)c1O` [Tyrphostin AG 879], the “Worm Reaction in Drug” value in the test with C. elegans VC2010 is listed as “SLOW! Only on 2nd gen, ns”.

With `COc1ccccc1NC(=O)Nc1nc(-c2cccnc2)nc2ccccc12` [VUF 5574], in the test on C. elegans VC2010, the “Worm Reaction in Drug” value is “uncish adults, starved”.

Turning to Avermectin B1, the “Worm Reaction in Drug” value in the test on C. elegans VC2010 is given as “adults DEAD”.
